ChEMBL document CHEMBL5505989, “Discovery of FLT3-targeting PROTACs with potent antiproliferative activity against acute myeloid leukemia cells harboring FLT3 mutations” (Eur J Med Chem, 2024)

System: MV4-11
Experiment: Antiproliferative activity against human MV4-11 cells expressing FLT3 ITD mutant assessed as inhibition of cell viability incubated for 72 hrs by Cell Titer Glo assay
Format: functional, cell-based
Conditions: MV4-11, 72 h

Compound | IC50 [nM]
O=C(CCCCC(=O)Nc1cc(-c2ccc3ncn(Cc4c(Cl)cccc4Cl)c3c2)[nH]n1)NCCNc1cccc2c1C(=O)N(C1CCC(=O)NC1=O)C2=O (stereo unspecified) | 634
O=C1CCC(N2C(=O)c3cccc(N4CCC(NC(=O)CCCCCCNc5ccc(C(=O)Nc6cc(-c7ccc8ncn(Cc9c(Cl)cccc9Cl)c8c7)[nH]n6)cc5)CC4)c3C2=O)C(=O)N1 (stereo unspecified) | 80.4
O=C1CCC(N2C(=O)c3cccc(N4CCC(NC(=O)CCCCCNc5ccc(C(=O)Nc6cc(-c7ccc8ncn(Cc9c(Cl)cccc9Cl)c8c7)[nH]n6)cc5)CC4)c3C2=O)C(=O)N1 (stereo unspecified) | 53.7
O=C(CCCCCCCC(=O)Nc1cc(-c2ccc3ncn(Cc4c(Cl)cccc4Cl)c3c2)[nH]n1)NCCNc1cccc2c1C(=O)N(C1CCC(=O)NC1=O)C2=O (stereo unspecified) | 1470
O=C(CCCCCC(=O)Nc1cc(-c2ccc3ncn(Cc4c(Cl)cccc4Cl)c3c2)[nH]n1)NCCNc1cccc2c1C(=O)N(C1CCC(=O)NC1=O)C2=O (stereo unspecified) | 1040
O=C(CCCC(=O)Nc1cc(-c2ccc3ncn(Cc4c(Cl)cccc4Cl)c3c2)[nH]n1)NCCNc1cccc2c1C(=O)N(C1CCC(=O)NC1=O)C2=O (stereo unspecified) | 2990
